Test results reported in US10172951B2, “Dendrimer based nanodevices for therapeutic and imaging purposes” (priority 2009, dated 2019).
“Also recorded” adds a separate entry of the source.

Assays:
[1] = cited from earlier work
[2] = Stability (oxidation) of free NAC and free GSH in PBS; format: physicochemical; details: over 17 hours
Description: (§1) The conjugates were also analyzed in the absence of GSH to verify the stability of the disulfide linkage at physiological pH. […] The extent of the release of drug from both dendrimer-NAC conjugates was also analyzed at plasma and intracellular GSH concentrations. The conjugates and the GSH in required amounts were added to PBS solution, and the solution was analyzed at various time intervals by HPLC for up to 17 hours. UV absorbance peak areas were used to determine the concentrations of each of the species in the solution, based on appropriate calibration curves.

[3] = system: BV-2 cells; test: TNF-α ELISA in LPS-activated BV-2 cells (Example 18); format: cell-based, mouse; details: 72 hours LPS following 3 hours treatment
Description: (§2) BV-2 cells (passage 16) were seeded in 24 well plates at 10^5/mL/well and incubated for 24 hours. The medium was removed, and the cells were exposed to 100 ng/mL of LPS and varying concentrations of PAMAM-(COOH)46-(NAC)18 conjugate in 500 μL of serum free medium for 3 hours. The medium was removed again, and 500 μL of fresh serum free medium containing 100 ng/mL of LPS was added and incubated for 24 hours and 72 hours. Control treatment with varying concentrations of free NAC, positive control with 100 ng/mL of LPS induction, but negative control without any LPS induction and treatment were also studied. The culture medium was collected at specific time intervals of 24 hours and 72 hours, and spun at 1500 rpm for 5 min. The supernatant was stored at −80° C. for further assays.
The procedure for cell culture and drug treatment was the same as described in previous section. TNF-α secretion was measured using an ELISA kit according to the manufacturer's instructions. In brief, 50 μL of supernatant from each sample was added in 96-well ELISA plates. Biotinylated antibody reagent was applied to each well and the plate was incubated at room temperature for 2 hours. After washing the plate with PBS-Tween 20, diluted streptavidin-HRP was added, and the plate was incubated at room temperature for 30 min. After washing the plate, the premixed TMB substrate solution was added. The plate was developed in the dark for 30 min, and read at 450 nm using a microplate reader. The concentration of TNF-α was calculated using murine rTNF-α as standard.

[4] = system: BV-2 cells; test: ROS assay (H2O2, Amplex Red), PEG-NAC conjugates; format: cell-based, mouse; details: highest concentration 5 mM
Description: (A) BV-2 cells (passage 22) were co-treated with 100 ng/mL of LPS and the indicated concentration of NAC, PEG-NAC conjugate 1 and its corresponding PEG for 72 hours. (B) BV-2 cells were co-treated with 100 ng/mL of LPS and the indicated concentration of NAC, PEG-NAC conjugate 2 and its corresponding PEG for 72 hours. The amount of ROS released into the media was measured using Amplex Red.
H2O2 released from BV-2 cells was measured using 10-acetyl-3,7-dihydroxyphenoxazine (Amplex Red), following the manufacturer's instructions. Briefly, the procedure for cell culture and drug treatment was the same as described in previous section. The supernatant was mixed with 0.05 U/mL of horseradish peroxidase and 1 μM of Amplex Red in 96-well plates. After 30 min incubation, the fluorescence intensity was measured using spectrofluorometry. Excitation and emission wavelengths were 530 nm and 590 nm.

[5] = system: BV-2 cells; test: NO release (nitrite) assay in LPS-activated BV-2 cells (Example 18); format: cell-based, mouse; details: for Nitrite reduction (%): 72 hours LPS following 3 hours treatment; for reduction of nitrite release: 24 hours LPS following 3 hours pre-treatment
Description: as §2
Production of NO was assayed by measuring the levels of nitrite, the stable NO metabolite, in the culture medium. Accumulation of nitrite in the medium was determined by colorimetric assay with Griess reagent system, which uses sulfanilamide and N-(1-Naphthyl)-ethylene diamine. From the treated cells in the medium, 100 μL of the supernatant was incubated with 50 μL of Griess reagent 1 (sulfanilamide) and 50 μL of Griess reagent 2 N-(1-Naphthyl)-ethylenediamine for 10 min at room temperature. The absorbance at 540 nm was then measured, and nitrite concentration was determined using a calibration curve prepared using nitrite standards.

[6] = system: BV-2 cells; test: NO release assay (nitrite, Griess), PEG-NAC conjugates; format: cell-based, mouse; details: highest concentration 5 mM
Description: (A) BV-2 cells (passage 22) were co-treated with 100 ng/mL of LPS and the indicated concentration of NAC, PEG-NAC conjugate 1 and its corresponding PEG for 72 hours. (B) BV-2 cells were co-treated with 100 ng/mL of LPS and the indicated concentration of NAC, PEG-NAC conjugate 2 its corresponding PEG for 72 hours. Nitrite in culture medium was measured using Griess reagent system.
Production of NO was assayed by measuring the levels of nitrite, the stable NO metabolite, in supernatant. Accumulation of nitrite in supernatant was determined by colorimetric assay with Griess reagent system, which uses sulfanilamide and N-(1-Naphthyl)-ethylene diamine. 100 μL of the supernatant was incubated with 50 μL of Griess reagent 1 (sulfanilamide) and 50 μL of Griess reagent 2 N-(1-Naphthyl)-ethylenediamine for 10 min at room temperature. The absorbance at 540 nm was then measured, and nitrite concentration was determined using a curve calibrated with nitrite standards.

[7] = system: microglial cells; test: Cytotoxicity assay in microglial cells (Example 18); format: cell-based, mouse; details: concentrations tested in vitro
[8] = system: BV-2 cells; test: ROS assay, percent reduction in H2O2 in LPS-treated BV-2 cells (Example 19); format: cell-based, mouse; details: co-treatment with LPS
Description: Cells were treated with lipopolysaccharide (LPS) to induce the production of ROS. The cells were treated with LPS (100 ng/ml) and either NAC, PAMAM-S—S-NAC, or free PAMAM-NH2 dendrimers at appropriate concentrations to study the efficacy of the conjugates for reducing the ROS concentrations. In order to quantify the efficacy of conjugates, H2O2 released from BV-2 cells (ROS) was measured using the Amplex Red Hydrogen Peroxide/Peroxidase Assay Kit using previously established procedures.

[9] = system: BV-2 cells; test: ROS assay in LPS-activated BV-2 cells, 3 hours pre-treatment (Example 18); format: cell-based, mouse; details: for H2O2 reduction (%): 72 hours LPS following 3 hours treatment; for effect on ROS production: 24 hours LPS following 3 hours pre-treatment, 0.5-8 mM
Description: as §2
H2O2 released from BV-2 cells was measured using 10-acetyl-3,7-dihydroxyphenoxazine (Amplex Red), following the manufacturer's instructions (Alexandre et al., 2006; Min et al., 2003). The procedure for cell culture and drug treatment was the same as described in previous section. The supernatant was mixed with 0.05 U/mL of horseradish peroxidase and 1 μM of Amplex Red in 96-well plates. After 30 min incubation, the fluorescence intensity was measured using spectrofluorometry. Excitation and emission wavelengths were 530 nm and 590 nm respectively.

[10] = system: Mouse microglial cell line (BV-2); test: In vitro cytotoxicity, MTT assay (Example 19); details: 0.5, 2 and 8 mM
Text: In vitro cytotoxicity of the conjugate, dendrimer and NAC, at conditions similar to that used in the efficacy assays, was investigated by MTT assay. Mouse microglial cell line (BV-2) was obtained from Children's Hospital of Michigan Cell Culture Facility. These cells were used because the eventual in vivo applications seek to target microglial cells that become activated as a result of neuroinflammation.
The lipopolysaccharide (LPS) was used to activate the cells for the ROS assay. For the cytotoxicity study, the LPS treatment was continuous for 24 hours. For both groups, the LPS concentration used was 100 ng/ml. Three concentrations of NAC were studied: 0.5 mM, 2 mM and 8 mM. For the conjugate assays, the concentrations used corresponded to equivalent NAC doses of the free drug treatment groups. Similarly, the dendrimer assays were run by using dendrimer concentrations that were equivalent to conjugate treatments. Control groups included cells receiving only LPS and no other treatment and cells with no LPS or other treatment. The proportion of viable cells in the treated group was compared to that of negative control. The cell viability is expressed as mean±SD of three samples per group, and assessed by t-test.

[11] = cited from earlier work; remark: listed apart in the source
[12] = GSH triggered NAC release from PAMAM dendrimer-NAC conjugates (RP-HPLC); format: physicochemical
Description: Appropriate amounts of PAMAM-S—S-NAC conjugate were dissolved in release media (Citrate or PBS buffers) to form a solution of 1 mg/ml PAMAM-S—S-NAC. One of the thiol containing molecules (GSH, Cys or BSA) was added to the conjugates to form 10 mM, 2 mM, 0.5 mM 0.1 mM or 2 μM overall thiol group concentrations and to initiate the release of NAC. All samples were run as triplicates for statistical analysis.
As control samples, conjugates were analyzed in both release media in the absence of reducing agents. The solutions were kept at 37° C. and stirred continuously. At predetermined time intervals, […] of samples were withdrawn and immediately analyzed with RP-HPLC and the concentrations of analytes were determined by using appropriate calibrations prepared under same conditions.
Dendrimer NAC conjugates were analyzed for their drug release mechanism and kinetics in the presence of GSH, Cys and BSA. Buffer solutions with pH 5 (Citrate Buffer) and pH 7.4 (Phosphate Buffered Saline) containing various concentrations of these thiol containing moieties were used in release studies.
All GSH concentrations studied were between average plasma (2 μM) and intracellular (2-10 mM) GSH levels. Various GSH concentrations were used in order to determine the GSH dependent release kinetics of the conjugate. The conjugate solutions contained 730 μM NAC in the conjugated form (1 mg/ml PAMAM-S—S-NAC) at the beginning of the release studies. GSH concentration in the release media was compared to the conjugated NAC concentrations in the release solutions for analysis of the release kinetics and mechanism.
The release of NAC from the conjugates was investigated in the presence of GSH at intracellular and extracellular concentrations. It was assumed that the release of NAC would occur by the disulfide exchange reaction. GSH and its oxidized form (GSSG) are responsible for forming the intracellular redox buffer. Intracellularly, GSH takes the role of attacking thiolate moiety and gets oxidized in the process while cleaving the existing disulfide bonds.
as §1

[13] = as above; format: physicochemical; details: absence of GSH, or GSH levels in the blood (20 μM)
[14] = Solubility in PBS/H2O; format: physicochemical
[15] = 10 mM GSH, PBS pH 7.4, within 1 hour

Compound: N[C@@H](CCC(=O)N[C@@H](CS)C(=O)NCC(=O)O)C(=O)O [GSH, glutathione]
- pKa of thiol group [1]: ~8.8
- converted to oxidized form [2]: 25%

Compound: CC(=O)N[C@@H](CS)C(=O)O [NAC, N-acetyl-L-cysteine, reference compound]
- TNF-α reduction (%) ([3]; 0.5 mM): 34.98 ± 2.43%
- TNF-α reduction (%) ([3]; 2 mM): 35.13 ± 4.44%
- TNF-α reduction (%) ([3]; 8 mM): 44.57 ± 4.35%
- reduction of H2O2 levels [4]: 30-40%
- Nitrite reduction (%) ([5]; 0.5 mM): 10.52 ± 6.43%
- Nitrite reduction (%) ([5]; 2 mM): 34.66 ± 3.22%
- reduction of nitrite release ([5]; 8 mM): ~70%
- Nitrite reduction (%) ([5]; 8 mM): 72.70 ± 5.56%
- reduction of nitrite levels [6]: 30-40%
- cytotoxicity [7]: relatively nontoxic
- reduction in H2O2 levels ([8]; 0.5 mM NAC (equivalent), 24 hours): 6%
- reduction in H2O2 levels ([8]; 0.5 mM NAC (equivalent), 72 hours): 7%
- reduction in H2O2 levels ([8]; 8 mM, 24 hours): 57%
- reduction in H2O2 levels ([8]; 8 mM, 72 hours): 125%
- H2O2 reduction (%) ([9]; 0.5 mM): 5.54 ± 6.38%
- H2O2 reduction (%) ([9]; 2 mM): 22.28 ± 8.33%
- H2O2 reduction (%) ([9]; 8 mM): 41.31 ± 2.33%
- effect on ROS production [9]: did not affect ROS production
- converted to oxidized form [2]: 25%
- cytotoxicity [10]: no cytotoxicity
- biological half-life ([11]; in the blood stream): 1.5 hours
- bioavailability ([11]; reduced by binding to plasma proteins): less than 8%

Compound: PAMAM-CO-GS—S-NAC [PAMAM-(COOH)46-(NAC)18]
- TNF-α reduction (%) ([3]; 0.5 mM): ~67%
- TNF-α reduction (%) ([3]; 0.5 mM, listed as D-NAC): 67.46 ± 3.91%
- TNF-α reduction (%) ([3]; 2 mM): 74.43 ± 3.54%
- TNF-α reduction (%) ([3]; 8 mM): 77.37 ± 3.31%
- NAC payload in GS-S-NAC (NAC-GSH) form [12, 15]: 6%
- NAC payload released in free form [12, 15]: 39%
- total NAC release [12, 15]: 45%
- NAC payload in GS-S-NAC form ([12]; 10 mM GSH, at 17 hours): 6%
- free NAC content ([12]; 10 mM GSH, at 17 hours): 46%
- NAC release ([12]; PBS buffer without GSH, 17 hours): did not release any of the NAC they carried
- NAC payload found as GS-S-NAC or NAC-NAC ([12]; plasma GSH concentration (2 μM)): 1%
- release of free NAC ([12]; plasma GSH concentration (2 μM), 17 hours): did not release any detectable levels of free NAC
- drug release [13]: no drug release
- reduction of nitrite release ([5]; 0.5 mM NAC equivalent): ~61%
- Nitrite reduction (%) ([5]; 0.5 mM): ~60%
- Nitrite reduction (%) ([5]; 0.5 mM, listed as D-NAC): 60.82 ± 6.05%
- Nitrite reduction (%) ([5]; 2 mM): 64.85 ± 5.12%
- Nitrite reduction (%) ([5]; 8 mM): 75.75 ± 1.85%
- free drug dosage with comparable activity relative to conjugate dose (8 mM vs 0.5 mM) ([5]; lowest conjugate dose 0.5 mM NAC): 16 ×
- cytotoxicity [7]: relatively nontoxic; also recorded: non-toxic
- H2O2 reduction (%) ([9]; 0.5 mM): 25%
- H2O2 reduction (%) ([9]; 0.5 mM, listed as D-NAC): 30.81 ± 8.08%
- H2O2 reduction (%) ([9]; 2 mM): 51.13 ± 4.93%
- H2O2 reduction (%) ([9]; 8 mM): 68%
- H2O2 reduction (%) ([9]; 8 mM, listed as D-NAC): 68.75 ± 4.14%
- effect on ROS production [9]: significant inhibition of ROS production at 2 mM and 8 mM
- Solubility in PBS/H2O [14]: Highly
